The results in this text go back to patent publication US6232294A, “Neuro-function regulatory agent” (Kabushiki Kaisha Hayashibara Seibutsu Kagaku Kenkyujo, priority 1997, dated 2001).

The nature of series [1]: Acute toxicity test. To be noted: dose up to about 16 g per kg mouse (maximum challenged), intraperitoneal or oral, observed for a week.
Protocol: An adequate amount of "TREHAOSE®" , a crystalline trehalose powder commercialized by Hayashibara Shoji, Inc., Okayama, Japan, was dissolved in physiological saline containing 5 w/w % gum arabic, and the solution was sterilized in usual manner and intraperitoneally injected to ddy-mice, 20-25 g weight, in a group of 10 mice, or orally administered to the mice by using a stomach sonde. […] In parallel similar experiments were conducted using as glycosyl vitamin P "αG HESPERIDIN PA" with a total hesperidin content of 74-78%, d.s.b., a glycosyl hesperidin power commercialized by Hayashibara Shoji, Inc., Okayama, Japan, and "αG RUTIN PS" with a total rutin content of 80-82%, d.s.b., a glycosyl rutin powder commercialized by Hayashibara Shoji, Inc., Okayama, Japan.
Series [2] can be described thus: Clinical test in volunteers with chronic fatigue syndrome or slight depression. The class given is in vivo, human. To be noted: experiment conducted similarly with vitamin P.
Protocol: A medical technologist conducted the clinical experiment and 24 hours after the final administration asked the therapeutic effect and the side effects of the volunteers, and also asked the therapeutic effect and side effects of the volunteers on the basis of the relief of feeling of fatigue, malaise, loss of appetite, and insomnia, which were accompanied by the diseases. The therapeutic effect was evaluated based on four ranks; "very effective", "effective", "unchanged",and "worsened". The effectivity was expressed by a percentage of the number of volunteers, who answered "very effective" and "effective", to the total number of volunteers.

As for `OC[C@H]1O[C@H](O[C@H]2O[C@H](CO)[C@@H](O)[C@H](O)[C@H]2O)[C@H](O)[C@@H](O)[C@@H]1O` [TREHAOSE®, α,α-trehalose], in series [1], the Mortality entry is reported as “no mouse died”. As for vitamin P, the “Effect as compared with control (in words)” value in series [2] is “no significant effect was found as compared with control”.
